Laboratory results taken from the supplement of paper PMC11208160.

test: recombinant barcode read abundance after kanamycin selection (control-corrected) (log10(CPM+1)); higher = more efficient recombination; sequences stand for … in AGTGCAGAGAAAATCGGCCAGTTTTCTCTGCCTGCAGTCCGCATGCCGT…AGATTTATGCAGCGGACTGCCTTTCTCCCAAAGTGATAAACCGGACAGTATCATGGACCGGTTTTCCCGGTAATCCGTATTTGCAAGGTTGGTTTCACT; site = the 11-nt target
In short: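 Targets were screened in pooled form in E. coli against IS621 bridge RNA target-binding loops. Recombination efficiency is based on barcode counts at recombinant junctions in counts per million, averaged and corrected for the control. Numbers are shown as log10(CPM+1), with duplicate plates on chloramphenicol/ampicillin LB agar (control) or chloramphenicol/ampicillin/kanamycin with 0.1 mM IPTG.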
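Also: IS621 recombinase and bridge RNA in Escherichia coli cells.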

Sequence | recombinant barcode read abundance (log10)
CACCGAGCTTGGGTTCTAACCTGTTGCCG (site CACCGAGCTCG) | 0.577
CACCGAGCTTGGGTTCTAACCTGTTGCCG (site CAGCGAGCTCG) | 0.534
CACCGAGCTTGGGTTCTAACCTGTTGCCG (site CATCGAGCTCG) | 0.145
CACGAGCCTTGGGTTCTAACCTGTTGCCT (site CACGAGACTAG) | 0.149
CACGAGCCTTGGGTTCTAACCTGTTGCCT (site CACGAGCCTAG) | 2.24
CACGAGCCTTGGGTTCTAACCTGTTGCCT (site CACGAGGCTAG) | 0.0367
CACGAGCCTTGGGTTCTAACCTGTTGCCT (site CACGAGTCTAG) | 1.63
CACGCATCTTGGGTTCTAACCTGTTGCCT (site CACCAATCTAG) | 0.211
CACGCATCTTGGGTTCTAACCTGTTGCCT (site CACGCATCTAG) | 0.822
CACGGAACTTGGGTTCTAACCTGTTGCCT (site CACGGAACTAG) | 1.82
CACGGAACTTGGGTTCTAACCTGTTGCCT (site CACGTTACTAG) | 0.59
CACGGGCCTTGGGTTCTAACCTGTTGCCT (site CACGGGCCTAG) | 0.466
CACGGGCCTTGGGTTCTAACCTGTTGCCT (site GACAGGCCTAG) | 0.0551
CACTAGACTTGGGTTCTAACCTGTTGCCG (site CACTAGACTCG) | 1.37
CACTAGACTTGGGTTCTAACCTGTTGCCG (site GTGACTGCTAC) | 0.242
CACTCCTCTTGGGTTCTAACCTGTTGCTT (site CACTCCTCTAA) | 0.0523
CACTCCTCTTGGGTTCTAACCTGTTGCTT (site CTCTGCTCTAA) | 0.0209
CACTGAGCTTGGGTTCTAACCTGTTGCCT (site CACTGAGCTAG) | 0.845

Sequence | recombinant barcode read abundance (log10)
CACTGAGCTTGGGTTCTAACCTGTTGCCT (site TACTGAGCTAG) | 0.229
CACTGATCTTGGGTTCTAACCTGTTGCCT (site CACTGATCTAG) | 1.28
CACTGATCTTGGGTTCTAACCTGTTGCCT (site CACTGCTCTAG) | 0.0175
CACTGATCTTGGGTTCTAACCTGTTGCCT (site CACTGGTCTAG) | 0.281
CACTGATCTTGGGTTCTAACCTGTTGCCT (site CACTGTTCTAG) | 0.302
CACTTTGCTTGGGTTCTAACCTGTTGCCT (site AGGGAGACTGA) | 0.145
CACTTTGCTTGGGTTCTAACCTGTTGCCT (site CACTTTGCTAG) | 0.207
CAGAATCCTTGGGTTCTAACCTGTTGCGG (site CAGAATCCTCC) | 1.73
CAGAATCCTTGGGTTCTAACCTGTTGCGG (site TCTCTCGCTAG) | 0.0949
CAGACGACTTGGGTTCTAACCTGTTGCCA (site CAGACGACTTG) | 0.37
CAGACGACTTGGGTTCTAACCTGTTGCCA (site TGCTGTCCTAA) | 0.0664
CAGAGATCTTGGGTTCTAACCTGTTGCTT (site CAAAGATCTAA) | 0.328
CAGAGATCTTGGGTTCTAACCTGTTGCTT (site CACAGATCTAA) | 0.137
CAGAGATCTTGGGTTCTAACCTGTTGCTT (site CAGAGATCTAA) | 1.33
CAGAGATCTTGGGTTCTAACCTGTTGCTT (site CATAGATCTAA) | 0.104
CAGAGCTCTTGGGTTCTAACCTGTTGCCG (site AGACAGACTAC) | 0.078
CAGAGCTCTTGGGTTCTAACCTGTTGCCG (site CAGAGCTCTCG) | 2.05
CAGAGTCCTTGGGTTCTAACCTGTTGCAT (site CAGAGTCCTAG) | 0.852
